From patent US10538555B2, “Macrocyclic inhibitors of the PD-1/PD-L1 and CD80(B7-1)/PD-L1 protein/protein interactions” (BRISTOL-MYERS SQUIBB COMPANY, priority 2014, dated 2020)
Where a SMILES comes first, the peptide text is derived from it. Bridges are numbered along the chain shown (N, C = ends). [ ]: non-standard residue; d: D form. ξ: configuration not given here. Bta = N[C@@H](Cc1csc2ccccc12)C(=O)O; Hyp = O=C(O)[C@@H]1C[C@@H](O)CN1; NMeF = CN[C@@H](Cc1ccccc1)C(=O)O; NMeNle = CCCC[C@H](NC)C(=O)O; NMeM = CN[C@@H](CCSC)C(=O)O; NMeA = CN[C@@H](C)C(=O)O; Dab = NCC[C@H](N)C(=O)O; ξC = NC(CS)C(=O)O

molecular target: T1, Human PD-L1/PD-1 (Homo sapiens, UniProt Q9NZQ7); experiment: HTRF Human PD-L1/PD-1 binding assay (PD-1-Ig/PD-L1-His); details: PD-L1-His 10 nM, PD-1-Ig 20 nM; class symbol; read-out: HTRF Human PD-L1/PD-1 Binding Assay IC50 Range
T1 construct: TVMV protease cleavage site (C); made in house; host or cells: HEK293T cells
T1 sequence (Q9NZQ7 with tags, fused parts or gaps): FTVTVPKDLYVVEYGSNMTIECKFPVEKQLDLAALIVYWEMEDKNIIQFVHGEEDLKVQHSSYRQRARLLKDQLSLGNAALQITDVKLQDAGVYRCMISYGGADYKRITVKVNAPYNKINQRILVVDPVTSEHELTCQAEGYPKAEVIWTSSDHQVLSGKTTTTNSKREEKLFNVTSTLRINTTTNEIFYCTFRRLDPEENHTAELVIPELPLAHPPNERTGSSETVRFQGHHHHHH
Outline: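 Competition of macrocyclic peptides for PD-1/PD-L1 binding measured by HTRF in dPBS containing 0.1% BSA and 0.05% Tween-20. Compound and PD-L1-His (10 nM final) incubated 15 min before PD-1-Ig (20 nM final) and a further 15 min.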

Row | IC50 | SMILES
1 | 10 to 99.9 nM | CCCC[C@H]1C(=O)N(C)[C@@H](CCCC)C(=O)N[C@@H](CC(C)C)C(=O)NC(C(=O)NCC(N)=O)CSCC(=O)N[C@@H](Cc2ccc(O)cc2)C(=O)N(C)[C@@H](C)C(=O)N[C@@H](CC(N)=O)C(=O)N2CCC[C@H]2C(=O)N[C@@H](CC(N)=O)C(=O)N[C@@H](CC(C)C)C(=O)N2CCC[C@H]2C(=O)N[C@@H](Cc2csc3ccccc23)C(=O)N[C@@H](CO)C(=O)N[C@@H](Cc2c[nH]c3ccccc23)C(=O)N1C (stereo partly drawn) [Example 9160] ({CH2CO}-Y[NMeA]NPNLP[Bta]SW[NMeNle][NMeNle]L[ξC]G-NH2; thioether N-14)
2 | 1 to 9.9 nM | CCCC[C@H]1C(=O)N(C)[C@@H](CCCC)C(=O)N[C@@H](CC(C)C)C(=O)NC(C(=O)NCC(N)=O)CSCC(=O)N[C@@H](Cc2ccc(O)cc2)C(=O)N(C)[C@@H](C)C(=O)N[C@@H](CC(N)=O)C(=O)N2CCC[C@H]2C(=O)N[C@@H](CC(N)=O)C(=O)N[C@@H](CC(C)C)C(=O)N2CCC[C@H]2C(=O)N[C@@H](Cc2c[nH]c3ccccc23)C(=O)N[C@@H](CO)C(=O)N[C@@H](Cc2c[nH]c3ccccc23)C(=O)N1C (stereo partly drawn) [Example 9161] ({CH2CO}-Y[NMeA]NPNLPWSW[NMeNle][NMeNle]L[ξC]G-NH2; thioether N-14)
3 | 1 to 9.9 nM | CCCC[C@H]1C(=O)N(C)[C@@H](CCCC)C(=O)N[C@@H](CCN)C(=O)NC(C(=O)NCC(N)=O)CSCC(=O)N[C@@H](Cc2ccc(O)cc2)C(=O)N(C)[C@@H](C)C(=O)N[C@@H](CC(N)=O)C(=O)N2CCC[C@H]2C(=O)N[C@@H](CC(N)=O)C(=O)N[C@@H](CC(C)C)C(=O)N2CCC[C@H]2C(=O)N[C@@H](Cc2c[nH]c3ccccc23)C(=O)N[C@@H](CO)C(=O)N[C@@H](Cc2c[nH]c3ccccc23)C(=O)N1C (stereo partly drawn) [Example 9162] ({CH2CO}-Y[NMeA]NPNLPWSW[NMeNle][NMeNle][Dab][ξC]G-NH2; thioether N-14)
4 | 1 to 9.9 nM | CCCC[C@H]1C(=O)N(C)[C@@H](CCCC)C(=O)N[C@@H](CCN)C(=O)NC(C(=O)NCC(N)=O)CSCC(=O)N[C@@H](Cc2ccc(O)cc2)C(=O)N(C)[C@@H](C)C(=O)N[C@@H](CC(N)=O)C(=O)N2CCC[C@H]2C(=O)N[C@@H](CC(N)=O)C(=O)N[C@@H](CC(C)C)C(=O)N2CCC[C@H]2C(=O)N[C@@H](Cc2csc3ccccc23)C(=O)N[C@@H](CO)C(=O)N[C@@H](Cc2c[nH]c3ccccc23)C(=O)N1C (stereo partly drawn) [Example 9163] ({CH2CO}-Y[NMeA]NPNLP[Bta]SW[NMeNle][NMeNle][Dab][ξC]G-NH2; thioether N-14)
5 | 1 to 9.9 nM | CCCC[C@H]1C(=O)N(C)[C@@H](CCCC)C(=O)N[C@@H](CCN)C(=O)NC(C(=O)NCC(N)=O)CSCC(=O)N[C@@H](Cc2ccc(O)cc2)C(=O)N(C)[C@@H](C)C(=O)N[C@@H](CC(N)=O)C(=O)N2CCC[C@H]2C(=O)N[C@@H](CC(N)=O)C(=O)N[C@@H](CC(C)C)C(=O)N2C[C@H](O)C[C@H]2C(=O)N[C@@H](Cc2c[nH]c3ccccc23)C(=O)N[C@@H](CO)C(=O)N[C@@H](Cc2c[nH]c3ccccc23)C(=O)N1C (stereo partly drawn) [Example 9164] ({CH2CO}-Y[NMeA]NPNL[Hyp]WSW[NMeNle][NMeNle][Dab][ξC]G-NH2; thioether N-14)
6 | 1 to 9.9 nM | CCCC[C@H]1C(=O)N(C)[C@@H](CCCC)C(=O)N[C@@H](CCN)C(=O)NC(C(=O)NCC(N)=O)CSCC(=O)N[C@@H](Cc2ccc(O)cc2)C(=O)N(C)[C@@H](C)C(=O)N[C@@H](CC(N)=O)C(=O)N2CCC[C@H]2C(=O)N[C@@H](CC(N)=O)C(=O)N[C@@H](CC(C)C)C(=O)N2C[C@H](O)C[C@H]2C(=O)N[C@@H](Cc2c[nH]c3ccccc23)C(=O)N[C@@H](CO)C(=O)N[C@@H](Cc2csc3ccccc23)C(=O)N1C (stereo partly drawn) [Example 9165] ({CH2CO}-Y[NMeA]NPNL[Hyp]WS[Bta][NMeNle][NMeNle][Dab][ξC]G-NH2; thioether N-14)
7 | 1000 to 10000 nM | CSCC[C@H]1C(=O)N2C[C@H](O)C[C@H]2C(=O)N[C@@H](CC(=O)O)C(=O)N[C@@H](C(C)C)C(=O)N(C)[C@@H](Cc2ccccc2)C(=O)N[C@@H](Cc2ccc(O)cc2)C(=O)N2C[C@H](O)C[C@H]2C(=O)N[C@@H](Cc2c[nH]c3ccccc23)C(=O)N[C@@H](Cc2ccc(O)cc2)C(=O)N[C@@H](CC(C)C)C(=O)N[C@H](C(=O)NCC(N)=O)CSCC(=O)N[C@@H](Cc2ccccc2)C(=O)N(C)[C@@H](Cc2ccccc2)C(=O)N1C [Example 9166] ({CH2CO}-F[NMeF][NMeM][Hyp]DV[NMeF]Y[Hyp]WYLCG-NH2; thioether N-13)
8 | 1 to 9.9 nM | CCCC[C@H]1C(=O)N(C)[C@@H](CCCC)C(=O)N[C@@H](CCC(=O)O)C(=O)NC(C(=O)NCC(N)=O)CSCC(=O)N[C@@H](Cc2ccc(O)cc2)C(=O)N(C)[C@@H](C)C(=O)N[C@@H](CC(N)=O)C(=O)N2CCC[C@H]2C(=O)N[C@@H](CC(N)=O)C(=O)N[C@@H](CC(C)C)C(=O)N2CCC[C@H]2C(=O)N[C@@H](Cc2c[nH]c3ccccc23)C(=O)N[C@@H](CO)C(=O)N[C@@H](Cc2c[nH]c3ccccc23)C(=O)N1C (stereo partly drawn) [Example 9168] ({CH2CO}-Y[NMeA]NPNLPWSW[NMeNle][NMeNle]E[ξC]G-NH2; thioether N-14)
9 | 1 to 9.9 nM | CCCC[C@H]1C(=O)N(C)[C@@H](CCCC)C(=O)N[C@@H](CCC(=O)O)C(=O)NC(C(=O)NCC(N)=O)CSCC(=O)N[C@@H](Cc2ccc(O)cc2)C(=O)N(C)[C@@H](C)C(=O)N[C@@H](CC(N)=O)C(=O)N2CCC[C@H]2C(=O)N[C@@H](CC(N)=O)C(=O)N[C@@H](CC(C)C)C(=O)N2C[C@H](O)C[C@H]2C(=O)N[C@@H](Cc2c[nH]c3ccccc23)C(=O)N[C@@H](CO)C(=O)N[C@@H](Cc2c[nH]c3ccccc23)C(=O)N1C (stereo partly drawn) [Example 9169] ({CH2CO}-Y[NMeA]NPNL[Hyp]WSW[NMeNle][NMeNle]E[ξC]G-NH2; thioether N-14)
10 | 10 to 99.9 nM | CCCC[C@H]1C(=O)N(C)[C@@H](CCCC)C(=O)N[C@@H](CCC(=O)O)C(=O)NC(C(=O)NCC(N)=O)CSCC(=O)N[C@@H](Cc2ccc(O)cc2)C(=O)N(C)[C@@H](C)C(=O)N[C@@H](CC(N)=O)C(=O)N2CCC[C@H]2C(=O)N[C@@H](Cc2c[nH]cn2)C(=O)N[C@@H](CC(N)=O)C(=O)N2CCC[C@H]2C(=O)N[C@@H](Cc2c[nH]c3ccccc23)C(=O)N[C@@H](CO)C(=O)N[C@@H](Cc2c[nH]c3ccccc23)C(=O)N1C (stereo partly drawn) [Example 9170] ({CH2CO}-Y[NMeA]NPHNPWSW[NMeNle][NMeNle]E[ξC]G-NH2; thioether N-14)
11 | 1 to 9.9 nM | CCCC[C@H]1C(=O)N(C)[C@@H](CCCC)C(=O)N[C@@H](CCC(=O)O)C(=O)NC(C(=O)NCC(N)=O)CSCC(=O)N[C@@H](Cc2ccc(O)cc2)C(=O)N(C)[C@@H](C)C(=O)N[C@@H](CC(N)=O)C(=O)N2CCC[C@H]2C(=O)N[C@@H](Cc2c[nH]cn2)C(=O)N[C@@H](CC(N)=O)C(=O)N2C[C@H](O)C[C@H]2C(=O)N[C@@H](Cc2c[nH]c3ccccc23)C(=O)N[C@@H](CO)C(=O)N[C@@H](Cc2c[nH]c3ccccc23)C(=O)N1C (stereo partly drawn) [Example 9171] ({CH2CO}-Y[NMeA]NPHN[Hyp]WSW[NMeNle][NMeNle]E[ξC]G-NH2; thioether N-14)
12 | 100 to 990 nM | CCCC[C@H]1C(=O)N(C)[C@@H](CCCC)C(=O)N[C@@H](CCC(=O)O)C(=O)NC(C(=O)NCC(N)=O)CSCC(=O)N[C@@H](Cc2ccc(O)cc2)C(=O)N(C)[C@@H](C)C(=O)N[C@@H](CC(N)=O)C(=O)N2CCC[C@H]2C(=O)N[C@@H](CC(N)=O)C(=O)N[C@@H](CC(C)C)C(=O)N2CCC[C@H]2C(=O)N[C@@H](Cc2c[nH]c3ccccc23)C(=O)N[C@@H](CC(=O)O)C(=O)N[C@@H](Cc2c[nH]c3ccccc23)C(=O)N1C (stereo partly drawn) [Example 9172] ({CH2CO}-Y[NMeA]NPNLPWDW[NMeNle][NMeNle]E[ξC]G-NH2; thioether N-14)
13 | 100 to 990 nM | CCCC[C@H]1C(=O)N(C)[C@@H](CCCC)C(=O)N[C@@H](CCC(=O)O)C(=O)NC(C(=O)NCC(N)=O)CSCC(=O)N[C@@H](Cc2ccc(O)cc2)C(=O)N(C)[C@@H](C)C(=O)N[C@@H](CC(N)=O)C(=O)N2CCC[C@H]2C(=O)N[C@@H](CC(N)=O)C(=O)N[C@@H](CC(C)C)C(=O)N2C[C@H](O)C[C@H]2C(=O)N[C@@H](Cc2c[nH]c3ccccc23)C(=O)N[C@@H](CC(=O)O)C(=O)N[C@@H](Cc2c[nH]c3ccccc23)C(=O)N1C (stereo partly drawn) [Example 9173] ({CH2CO}-Y[NMeA]NPNL[Hyp]WDW[NMeNle][NMeNle]E[ξC]G-NH2; thioether N-14)
14 | 100 to 990 nM | CCCC[C@H]1C(=O)N(C)[C@@H](CCCC)C(=O)N[C@@H](CCC(=O)O)C(=O)NC(C(=O)NCC(N)=O)CSCC(=O)N[C@@H](Cc2ccc(O)cc2)C(=O)N(C)[C@@H](C)C(=O)N[C@@H](CC(N)=O)C(=O)N2CCC[C@H]2C(=O)N[C@@H](Cc2c[nH]cn2)C(=O)N[C@@H](CC(N)=O)C(=O)N2CCC[C@H]2C(=O)N[C@@H](Cc2c[nH]c3ccccc23)C(=O)N[C@@H](CC(=O)O)C(=O)N[C@@H](Cc2c[nH]c3ccccc23)C(=O)N1C (stereo partly drawn) [Example 9174] ({CH2CO}-Y[NMeA]NPHNPWDW[NMeNle][NMeNle]E[ξC]G-NH2; thioether N-14)

same assay, conditions: PD-L1-His 10 nM, PD-1-Ig 20 nM; read-out: HTRF Human PD-L1/PD-1 Binding Assay IC50

Row | IC50 | SMILES
15 | 1000 nM | CSCC[C@H]1C(=O)N2C[C@H](O)C[C@H]2C(=O)N[C@@H](CC(N)=O)C(=O)N[C@@H](C(C)C)C(=O)N(C)[C@@H](Cc2ccccc2)C(=O)N[C@@H](Cc2ccc(O)cc2)C(=O)N2C[C@H](O)C[C@H]2C(=O)N[C@@H](Cc2c[nH]c3ccccc23)C(=O)N[C@@H](Cc2ccc(O)cc2)C(=O)N[C@@H](CC(C)C)C(=O)N[C@H](C(=O)NCC(N)=O)CSCC(=O)N[C@@H](Cc2ccccc2)C(=O)N(C)[C@@H](Cc2ccccc2)C(=O)N1C [Example 9167] ({CH2CO}-F[NMeF][NMeM][Hyp]NV[NMeF]Y[Hyp]WYLCG-NH2; thioether N-13)
